Patent US7906515B2, “Cancer treatment with topoisomerase-II inhibitor, a bis-dioxypiperazine and radiation” (Topotarget A/S, priority 2004, dated 2011)
“Also recorded” adds a separate entry of the source. Like-named read-outs stand apart in the source and are kept apart here. Values belong to the molecule of their own block, whether it stands above or below them.

Experiments:
[1] = Histological evaluation of the blood brain barrier and blood tumour barrier by dye staining; type: in vivo; conditions: day 3 after tumour implantation; 5 mice per dye
Description: Following anaesthesia by hypnorm/dormicum 25 uL of Evans Blue Dye or 80 uL of Lissamine Green was administered by a tail-vein. After allowing the dye to circulate, animals were perfused transcardially with a 4% formalin solution for 5 minutes. The brain was kept in formalin 4%, and […] thick slices were cut on a vibratome and evaluated visually for staining. A check for positive stain of organs was performed before inclusion of the animal in the evaluation of staining of the brain and tumour. Evans Blue Dye and Lissamine Green were obtained from Sigma-Aldrich (Vallensbaek, DK) and prepared fresh as a 2% solution in isotonic saline.
(§1) Experiments with Evans blue dye, Lissamine Green and 3H-etoposide were done on day 3, with preparations as described for treatment efficacy experiments.

[2] = test system: Ehrlich Ascites tumour cells; assay: Clonogenic survival in soft agar after drug with or without concurrent radiotherapy; conditions: for Cell-kill interaction of etoposide with radiotherapy: increasing concentrations of etoposide, 150 minutes exposure
topoisomerase-II = conditions: in vitro, cited from earlier work
[3] = test system: Ehrlich Ascites tumour cells; assay: Treatment efficacy: survival of mice with intracerebrally implanted Ehrlich Ascites tumour; type: in vivo, B6D2F1 female mice
Description: B6D2F1 female mice from Taconic M&B (Ry, Denmark) were housed in cages of 9 with free access to water and Altromi laboratory diet from Brogaarden (Gentofte, DK). They weighed 19-22 grams at inclusion in protocol. Animals that deteriorated clinically during the experiment were euthanised, and the experiments were approved by the Danish Animal Experimentation Inspectorate.
A total of 15×10^4 Ehrlich Ascites tumour cells in 30 uL saline were implanted into the right temporal hemisphere during short CO2 anaesthesia on day 0 and treated on day 3. Treatment was scheduled as follows: dexrazoxane at t=0, etoposide at t=20 minutes and radiation treatment at t=50 minutes. Before the radiotherapy procedure a light anaesthesia was administered, to achieve compliance.
This way we obtained a simple and reliable method of comparison.
Efficacy of chemoradiotherapy compared to radiotherapy alone was calculated as: […]
Median survival after chemotherapy compared to radiotherapy alone was calculated as:
The absolute numeric difference in median survival time after chemotherapy alone compared to radiotherapy alone was simply calculated as: Difference in survival (days)=MS radiotherapy−MS chemotherapy Eq. 3)
Survival times within the separate experimental treatment groups were compiled, and presented in Kaplan-Meier plots. P-values from Logrank tests comparing survival in experimental groups compared to radiotherapy alone are shown.
The dose-rate was 4.7 Gy/minute.
Dexrazoxane (Zinecard®) was obtained from Pharmacia (Kalamazoo, Mich.) and further diluted in Ringer-lactate. Etoposide (Vepesid™) was obtained as a ready to administer liquid solution from Pharmacia A/S (Copenhagen, DK) and diluted to final concentration in isotonic saline. 3H-etoposide was obtained from Moravek (Calif., USA) and kept at −20° C. All drugs were administered by the intra-peritoneal (ip.) route.

[4] = Brain and tumour uptake using tritiated etoposide; type: in vivo, mice; conditions: ten minutes after ip administration
Description: Tritium-labelled etoposide was mixed with either “cold” etoposide 9.0 mg/ml, “cold” etoposide 0.9 mg/ml or isotonic saline, all in a final volume of 200 uL. Ten minutes after the administration mice were anaesthetized by CO2, blood was collected and plasma was separated. […] Tumour and unaffected contra-lateral brain were removed under a surgical microscope, weighed and sonicated. Activity was measured in a liquid scintillation counter from Packard (US), and counts/gram in brain and tumour was compared to concurrent plasma values.
as §1

[5] = Etoposide area under the curve after intra-peritoneal treatment; type: in vivo; conditions: own experiments, data unpublished
Description: Following intra-peritoneal treatment with etoposide, approximately 95% of the total etoposide area under the curve is covered within 150 minutes after administration (own experiments, data unpublished). […] Ehrlich Ascites tumour cells were incubated in etoposide or dexrazoxane for 30 minutes before irradiation, and then allowed further 120 minutes post-irradiation drug incubation, resulting in a total duration of exposure of 150 minutes.

[6] = test system: brain metastasis from SCLC; conditions: cited from earlier work
topoisomerase II = conditions: cited from earlier work
[7] = concurrent teniposide and WBRT, phase III trial

Colouration of brain or tumour tissue after tail-vein administration [1]: no colouration of brain or tumour tissue
Compound: Cc1cc(-c2ccc(/N=N/c3ccc4c(S(=O)(=O)[O-])cc(S(=O)(=O)[O-])c(N)c4c3O)c(C)c2)ccc1/N=N/c1ccc2c(S(=O)(=O)[O-])cc(S(=O)(=O)[O-])c(N)c2c1O.[Na+].[Na+].[Na+].[Na+] [Evans blue dye]

Compound: C[C@@H](CN1CC(=O)NC(=O)C1)N1CC(=O)NC(=O)C1 [dexrazoxane, (S)-(+)-1,2-Bis(3,5-dioxopiperazin-1-yl)propane]
Toxicity of drug alone in clonogenic survival ([2]; dexrazoxane alone): non-toxic
Radio-enhancing effect in clonogenic survival ([2]; fixed doses of dexrazoxane 25 μM or 125 μM, increasing radiotherapy doses): no radio-enhancing effect; also recorded: no effect at all
Effect on toxicity from etoposide in clonogenic assay (topoisomerase-II): antagonises toxicity from etoposide
Formation of DNA strand breaks induced by topoisomerase-II poisons (topoisomerase-II): inhibits the formation of DNA strand breaks
Survival after drug alone ([3]; dexrazoxane 125 mg/kg alone): increased survival a little
Effect on survival in combination with radiotherapy ([3]; dexrazoxane 125 mg/kg and concurrent 10 Gy): neither dexrazoxane 125 mg/kg (FIG. 1D) nor solvent affected survival in combination with radiotherapy
Difference in survival, days lost from ineffective treatment (Eq. 3) ([3]; dexrazoxane 125 mg/kg ip alone, compared to radiotherapy): 5 days

Compound: COc1cc([C@@H]2c3cc4c(cc3[C@@H](O[C@@H]3O[C@@H]5CO[C@@H](C)O[C@H]5[C@H](O)[C@H]3O)[C@H]3COC(=O)[C@H]23)OCO4)cc(OC)c1O [etoposide, 9-[[4,6-O-(1R)-ethylidene-β-D-glucopyranosyl]oxy]-5,8,8a,9-tetrahydro-5-(4-hydroxy-3,5-dimethoxyphenyl)-(5R,5aR,8aR,9S)-furo[3′,4′:6,7]naphtho[2,3-d]-1,3-dioxol-6(5aH)-one]
Interaction by combination index (Chou and Talalay) ([2]; increasing concentrations of etoposide with radiotherapy): synergism
Cell-kill interaction of etoposide with radiotherapy ([2]; 1.25 Gy): did not result in an increased cell-kill
Cell-kill interaction of etoposide with radiotherapy ([2]; 7.5 Gy): synergistic cell-kill; also recorded: supra-additive cell-kill
Interaction by combination index (Chou and Talalay) ([2]; lowest concentrations of etoposide with radiotherapy): antagonistic
Cell-kill of etoposide in combination with radiotherapy (topoisomerase-II; literature): synergistic cell-kill
Survival after drug alone ([3]; etoposide 34 mg/kg alone): increased survival
Effect on survival from radiotherapy ([3]; etoposide 34 mg/kg and concurrent 10 Gy): did not enhance survival from radiotherapy
Influence of dose, vehicle or dexrazoxane pre-treatment on uptake in tumour [4]: no influence on uptake in tumour
Tumour drug uptake compared to brain [4]: higher than in brain, but statistically insignificant, except after treatment with the low dose of etoposide
Brain/plasma ratio of 3H-etoposide ([4]; etoposide dose-escalation or dexrazoxane 125 mg/kg pre-treatment): Neither etoposide dose-escalation nor pre-treatment with dexrazoxane altered the brain/plasma ratio
Share of total etoposide area under the curve covered within 150 minutes after administration [5]: approximately 95%

Compound: COc1cc([C@@H]2c3cc4c(cc3[C@@H](O[C@@H]3O[C@@H]5CO[C@@H](c6cccs6)O[C@H]5[C@H](O)[C@H]3O)[C@H]3COC(=O)[C@H]23)OCO4)cc(OC)c1O [teniposide]
Time to cerebral progression ([6]; concurrent teniposide and WBRT versus teniposide alone): significantly increased
Median survival [6, 7]: 3.5 months
Response rate [6, 7]: 57%
Response rate ([6]; teniposide 150 mg/m^2 day 1, 3 and 5, alone, phase II): 33%
Median survival ([6]; teniposide alone, phase III trial): 3.2 months
Potency relative to VP-16 (topoisomerase II): about 10 fold

Colouration of brain or tumour tissue after tail-vein administration [1]: no colouration of brain or tumour tissue
Compound: CN(C)c1ccc(C(=C2C=CC(=[N+](C)C)C=C2)c2c(O)c(S(=O)(=O)[O-])cc3cc(S(=O)(=O)[O-])ccc23)cc1.[Na+] [Lissamine Green]
